US20230015478A1, “GLP-1 RECEPTOR AGONISTS HAVING IMPROVED PHARMACOLOGICAL AND DRUG DELIVERY PROPERTIES” (priority 2021, published 2023)
Like-named read-outs stand apart in the source and are kept apart here. Each block holds one molecule with its values, some of them ahead of it. Numbered stars: 1 amine (or outer) side, 2 acyl side, 3 side chain; on linkers, the order of the positions; unused ones are H or OH. Square brackets hold non-standard residues; d marks the D form. Side chains are listed from the residue outwards. Peptide text beside a SMILES is read from it. * marks the point of attachment. Phe(2-CF3) = N[C@@H](Cc1ccccc1C(F)(F)F)C(=O)O; Bip = N[C@@H](Cc1ccc(-c2ccccc2)cc1)C(=O)O; C18 diacid = O=C(O)CCCCCCCCCCCCCCCCC(=O)*; X2 = O=C(CCc1ccc(I)cc1)N[C@@H](CN*)C(=O)O; αMePhe(2-F) = C[C@](N)(Cc1ccccc1F)C(=O)O; γGlu = O=C(O)[C@H](CCC(=O)[*:2])N[*:1]; Phe(2-F) = N[C@@H](Cc1ccccc1F)C(=O)O; Phe(2-Me) = Cc1ccccc1C[C@H](N)C(=O)O; hPhe = N[C@@H](CCc1ccccc1)C(=O)O; αMeP = C[C@@]1(C(=O)O)CCCN1; AEEA = NCCOCCOCC(=O)O; Aib = CC(C)(N)C(=O)O

Biological target: T1, hGLP1 receptor (Homo sapiens, UniProt P43220)
T1 construct: expressed in transfected cells; host or cells: HEK (human embryonic kidney) cells co-expressing hGLP1 receptor and CRE-Luciferase
Assay: cAMP HTRF agonist assay in HEK cells co-expressing hGLP1 receptor and CRE-Luciferase
Assay type: cell-based
Method in brief: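 HEK cells co-expressing hGLP1R and CRE-luciferase, 1000 cells/well in DPBS with 500 μM IBMX, exposed to peptides or exendin-4 reference for 30 min; 11-point 1:3 series from top 1.0 μM. cAMP measured by HTRF (665/615 nm) after 1 h at room temperature; EC50 from 4-parameter logistic fit.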

[1] = cAMP EC50, nM (0.1% albumin), Table 1, 0.1% albumin
[2] = cAMP EC50, nM (0.1% albumin), Table 4, 0.1% albumin
[3] = cAMP EC50, nM (0.1% albumin), Table 6, 0.1% albumin

T1 sequence (P43220 24-463): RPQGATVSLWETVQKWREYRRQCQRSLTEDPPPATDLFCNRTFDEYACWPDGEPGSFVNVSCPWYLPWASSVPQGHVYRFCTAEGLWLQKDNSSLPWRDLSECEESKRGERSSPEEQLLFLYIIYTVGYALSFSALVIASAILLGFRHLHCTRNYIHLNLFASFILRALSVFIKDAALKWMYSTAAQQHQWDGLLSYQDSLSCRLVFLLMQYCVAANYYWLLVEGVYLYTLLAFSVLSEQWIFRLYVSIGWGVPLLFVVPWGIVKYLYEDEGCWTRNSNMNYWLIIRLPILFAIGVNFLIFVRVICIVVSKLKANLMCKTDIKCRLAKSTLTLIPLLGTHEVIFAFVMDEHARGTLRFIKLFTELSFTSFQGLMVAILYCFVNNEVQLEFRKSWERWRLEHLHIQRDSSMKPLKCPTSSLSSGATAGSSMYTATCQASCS

EC50 [1]: 9.55 nM
SMILES: Cc1ccccc1C[C@H](NC(=O)[C@@H](NC(=O)CNC(=O)[C@H](CCC(=O)O)NC(=O)C(C)(C)NC(=O)[C@@H](N)Cc1c[nH]cn1)[C@@H](C)O)C(=O)N[C@H](C(=O)N[C@@H](CO)C(=O)N[C@@H](CC(=O)O)C(=O)N[C@@H](Cc1ccc(-c2ccccc2)cc1)C(=O)N[C@@H](Cc1ccc(-c2ccccc2)cc1)C(N)=O)[C@@H](C)O [3-4, H2N-His-Aib-Glu-Gly-Thr-Phe(2-CH3)-Thr-Ser-Asp-Bip-Bip-C(O)NH2] (H-H[Aib]EGT[Phe(2-Me)]TSD[Bip][Bip]-NH2)

EC50 [2]: 3.1 nM
SMILES: CC(C)C[C@H](NC(=O)[C@@H](N)CCC(=O)O)C(=O)NC(C)(C)C(=O)N[C@@H](CC(=O)O)C(=O)NCC(=O)N[C@H](C(=O)N[C@@](C)(Cc1ccccc1F)C(=O)N[C@H](C(=O)N[C@@H](CO)C(=O)N[C@@H](CC(=O)O)C(=O)N[C@@H](Cc1ccc(-c2ccccc2)cc1)C(=O)N[C@@H](Cc1ccc(-c2ccccc2)cc1)C(N)=O)[C@@H](C)O)[C@@H](C)O [2-7, H2N-Glu-Leu-Aib-Asp-Gly-Thr-α-MePhe(2-F)-Thr-Ser-Asp-Bip-Bip-C(O)NH2] (H-EL[Aib]DGT[αMePhe(2-F)]TSD[Bip][Bip]-NH2)

EC50 [1]: 97.1 nM
SMILES: C[C@@H](O)[C@H](NC(=O)CNC(=O)[C@H](CCC(=O)O)NC(=O)C(C)(C)NC(=O)[C@@H](N)Cc1c[nH]cn1)C(=O)N[C@@H](Cc1ccccc1C(F)(F)F)C(=O)N[C@H](C(=O)N[C@@H](CO)C(=O)N[C@@H](CC(=O)O)C(=O)N[C@@H](Cc1ccc(-c2ccccc2)cc1)C(=O)N[C@@H](Cc1ccc(-c2ccccc2)cc1)C(N)=O)[C@@H](C)O [3-3, H2N-His-Aib-Glu-Gly-Thr-Phe(2-CF3)-Thr-Ser-Asp-Bip-Bip-C(O)NH2] (H-H[Aib]EGT[Phe(2-CF3)]TSD[Bip][Bip]-NH2)

EC50 [3]: 1.4 nM
SMILES: C[C@@H](O)[C@H](NC(=O)CNC(=O)[C@H](CCC(=O)O)NC(=O)[C@]1(C)CCCN1C(=O)[C@@H](N)Cc1c[nH]cn1)C(=O)N[C@@](C)(Cc1ccccc1F)C(=O)N[C@H](C(=O)N[C@@H](CO)C(=O)N[C@@H](CC(=O)O)C(=O)N[C@@H](Cc1ccc(-c2ccccc2)cc1)C(=O)N[C@@H](Cc1ccc(-c2ccccc2)cc1)C(=O)NC(C)(C)C(=O)NCCOCCOCC(=O)NCCOCCOCC(=O)NCCOCCOCC(=O)NC[C@H](NC(=O)CCc1ccc(I)cc1)C(=O)O)[C@@H](C)O [4-62, H2N-His-α-MePro-Glu-Gly-Thr-α-MePhe(2-F)-Thr-Ser-Asp-Bip-Bip-C(O)NH-RY18] (H-H[αMeP]EGT[αMePhe(2-F)]TSD[Bip][Bip][Aib][AEEA][AEEA][AEEA]-X2)

fold lower potency than the parent peptide (1-4) (relative to parent 1-4): equipotency
SMILES: C[C@@H](O)[C@H](NC(=O)CNC(=O)[C@H](CCC(=O)O)NC(=O)C(C)(C)NC(=O)[C@@H](N)Cc1c[nH]cn1)C(=O)N[C@@](C)(Cc1ccccc1F)C(=O)N[C@H](C(=O)N[C@@H](CO)C(=O)N[C@@H](CC(=O)O)C(=O)N[C@@H](Cc1ccc(-c2ccccc2)cc1)C(=O)N[C@@H](CCc1ccccc1)C(=O)NCCOCCOCC(=O)NCCOCCOCC(=O)NCCOCCOCC(=O)NC[C@H](NC(=O)CCc1ccc(I)cc1)C(=O)O)[C@@H](C)O [4-37, H2N-His-Aib-Glu-Gly-Thr-α-MePhe(2-F)-Thr-Ser-Asp-Bip-Hph-C(O)NH-RY3] (H-H[Aib]EGT[αMePhe(2-F)]TSD[Bip][hPhe][AEEA][AEEA][AEEA]-X2)

SMILES: C[C@H](NC(=O)[C@@H](NC(=O)CNC(=O)[C@H](CCC(=O)O)NC(=O)C(C)(C)NC(=O)[C@@H](N)Cc1c[nH]cn1)[C@@H](C)O)C(=O)N[C@H](C(=O)N[C@@H](CO)C(=O)N[C@@H](CC(=O)O)C(=O)N[C@@H](Cc1ccc(-c2ccccc2)cc1)C(=O)N[C@@H](Cc1ccc(-c2ccccc2)cc1)C(N)=O)[C@@H](C)O [3-19, H2N-His-Aib-Glu-Gly-Thr-Ala-Thr-Ser-Asp-Bip-Bip-C(O)NH2] (H-H[Aib]EGTATSD[Bip][Bip]-NH2)
EC50 (Table 1, cells marked (0% albumin), read-out: cAMP EC50, nM (0% albumin)): 2800 nM

EC50 [3]: 272 nM
SMILES: C[C@@H](O)[C@H](NC(=O)CNC(=O)[C@H](CCC(=O)O)NC(=O)[C@]1(C)CCCN1C(=O)[C@@H](N)Cc1c[nH]cn1)C(=O)N[C@@](C)(Cc1ccccc1F)C(=O)N[C@H](C(=O)N[C@@H](CO)C(=O)N[C@@H](CC(=O)O)C(=O)N[C@@H](Cc1ccc(-c2ccccc2)cc1)C(=O)N[C@@H](Cc1ccc(-c2ccccc2)cc1)C(=O)N[C@@H](CCCCNC(=O)COCCOCCNC(=O)COCCOCCNC(=O)CC[C@H](NC(=O)CCCCCCCCCCCCCCCCC(=O)O)C(=O)O)C(N)=O)[C@@H](C)O [4-61, H2N-His-α-MePro-Glu-Gly-Thr-α-MePhe(2-F)-Thr-Ser-Asp-Bip-Bip-C(O)NH-RY17] (H-H[αMeP]EGT[αMePhe(2-F)]TSD[Bip][Bip]K([AEEA-AEEA-γGlu-C18 diacid])-NH2)

EC50 [3]: 5 nM
SMILES: C[C@@H](O)[C@H](NC(=O)CNC(=O)[C@H](CCC(=O)O)NC(=O)C(C)(C)NC(=O)[C@@H](N)Cc1c[nH]cn1)C(=O)N[C@@](C)(Cc1ccccc1F)C(=O)N[C@H](C(=O)N[C@@H](CO)C(=O)N[C@@H](CC(=O)O)C(=O)N[C@@H](Cc1ccc(-c2ccccc2)cc1)C(=O)N[C@@H](Cc1ccc(-c2ccccc2)cc1)C(=O)N[C@@H](CCCCNC(=O)COCCOCCNC(=O)COCCOCCNC(=O)CC[C@H](NC(=O)CCCCCCCCCCCCCCCCC(=O)O)C(=O)O)C(N)=O)[C@@H](C)O [4-49, H2N-His-Aib-Glu-Gly-Thr-α-MePhe(2-F)-Thr-Ser-Asp-Bip-Bip-C(O)NH-RY11] (H-H[Aib]EGT[αMePhe(2-F)]TSD[Bip][Bip]K([AEEA-AEEA-γGlu-C18 diacid])-NH2)

EC50 (cAMP EC50, nM (0.1% albumin), Table 2, 0.1% albumin): 28.1 nM
SMILES: C[C@H](NC(=O)CNC(=O)[C@H](CCC(=O)O)NC(=O)C(C)(C)NC(=O)[C@@H](N)Cc1c[nH]cn1)C(=O)N[C@@H](Cc1ccccc1F)C(=O)N[C@H](C(=O)N[C@@H](CO)C(=O)N[C@@H](CC(=O)O)C(=O)N[C@@H](Cc1ccc(-c2ccccc2)cc1)C(=O)N[C@@H](Cc1ccc(-c2ccccc2)cc1)C(N)=O)[C@@H](C)O [3-24, H2N-His-Aib-Glu-Gly-Ala-Phe(2-F)-Thr-Ser-Asp-Bip-Bip-C(O)NH2] (H-H[Aib]EGA[Phe(2-F)]TSD[Bip][Bip]-NH2)

EC50 [2]: 10.9 nM
SMILES: C[C@@H](O)[C@H](NC(=O)CNC(=O)[C@H](CCC(=O)O)NC(=O)C(C)(C)NC(=O)[C@H](Cc1c[nH]cn1)NC(=O)[C@@H](N)Cc1c[nH]c2ccccc12)C(=O)N[C@@H](Cc1ccccc1)C(=O)N[C@H](C(=O)N[C@@H](CO)C(=O)N[C@@H](CC(=O)O)C(=O)N[C@@H](Cc1ccc(-c2ccccc2)cc1)C(=O)N[C@@H](Cc1ccc(-c2ccccc2)cc1)C(N)=O)[C@@H](C)O [2-5, H2N-Trp-His-Aib-Glu-Gly-Thr-Phe-Thr-Ser-Asp-Bip-Bip-C(O)NH2] (H-WH[Aib]EGTFTSD[Bip][Bip]-NH2)

EC50 [3]: 7.7 nM
SMILES: C[C@@H](O)[C@H](NC(=O)CNC(=O)[C@H](CCC(=O)O)NC(=O)C(C)(C)NC(=O)[C@@H](N)Cc1c[nH]cn1)C(=O)N[C@@](C)(Cc1ccccc1F)C(=O)N[C@H](C(=O)N[C@@H](CO)C(=O)N[C@@H](CC(=O)O)C(=O)N[C@@H](Cc1ccc(-c2ccccc2)cc1)C(=O)N[C@@H](Cc1ccc(-c2ccccc2)cc1)C(=O)NCC(=O)NCC(=O)NCC(=O)N[C@@H](CCCCN)C(N)=O)[C@@H](C)O [4-58, H2N-His-Aib-Glu-Gly-Thr-α-MePhe(2-F)-Thr-Ser-Asp-Bip-Bip-C(O)NH-RY14] (H-H[Aib]EGT[αMePhe(2-F)]TSD[Bip][Bip]GGGK-NH2)
